# Measurements: PubChem BioAssay (NCI)
# Where “and” joins values, the source holds several entries; their conditions need not be identical. Identical values can stand only once.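 Values below derive from 48-hour exposures of cells grown in 96-well plates, with endpoints linearly interpolated between the two concentrations bracketing the appropriate inhibition level. GI50 is the concentration that inhibits growth by half. TGI denotes the concentration required for complete inhibition of growth.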
# Assays:
# Experiment in all cases: NCI tumour cell line growth inhibition, 48 h
# EKVX NSCLC = test system: EKVX NSCLC
# HCC-2998 colon = test system: HCC-2998 colon
# NCI-H460 lung = test system: NCI-H460 lung
# RPMI-8226 leukemia = test system: RPMI-8226 leukemia
# SK-OV-3 ovarian = test system: SK-OV-3 ovarian
# UACC-257 melanoma = test system: UACC-257 melanoma
# RXF 393 renal = test system: RXF 393 renal
# MDA-MB-435 = test system: MDA-MB-435
# PC-3 prostate = test system: PC-3 prostate
# T-47D breast = test system: T-47D breast
SMILES,TGI (EKVX NSCLC) [µM],TGI (HCC-2998 colon),TGI (NCI-H460 lung) [µM],TGI (RPMI-8226 leukemia) [µM],TGI (SK-OV-3 ovarian),TGI (UACC-257 melanoma) [µM],TGI (RXF 393 renal),TGI (MDA-MB-435) [µM],TGI (PC-3 prostate) [µM],TGI (T-47D breast) [µM],GI50 (EKVX NSCLC),GI50 (HCC-2998 colon) [µM],GI50 (MDA-MB-435) [µM],GI50 (NCI-H460 lung) [µM],GI50 (PC-3 prostate) [µM],GI50 (RPMI-8226 leukemia) [µM],GI50 (RXF 393 renal) [µM],GI50 (SK-OV-3 ovarian) [µM],GI50 (T-47D breast) [µM],GI50 (UACC-257 melanoma) [µM]
CCCC(=O)[O-].N.N.N.N.N.[Co+3].[O-][Cl+3]([O-])([O-])[O-],> 100,> 100 µM,> 100,> 100,> 100 µM,> 100,,,,,,,,,,,,,,
COC1OC2=CCC3C(=O)NC(=O)C3C2[C@H](OCc2ccccc2)C1OCc1ccccc1 (stereo partly drawn),3.39,11.4 µM,32.6,,30.8 µM,3.68,2.99 µM,,,,,,,,,,,,,
O=C(N/N=C/c1cc(Br)cc(Br)c1[O-])c1ccccc1O.O=C(N/N=C/c1cc(Br)cc(Br)c1[O-])c1ccccc1O.[Ni+2],2.97,1.39 µM,1.66,,1.95 µM,2.28,2.62 µM,,,,,,,,,,,,,
CCOC(=O)N1CCC(=C2c3ccc(Cl)cc3CCc3cccnc32)CC1,28.1,23.6 µM,18.9,32.9,29.1 µM,29.6,22.7 µM,24.9,25.7,35,,,,,,,,,,
CN(C)/N=N/c1nc[nH]c1C(N)=O,> 169,99.5 µM and > 654 µM,> 1000,,88.7 µM and 328 µM,> 1000,99.4 µM and > 165 µM,> 1000,> 1000,> 464,94.1 µM and > 134 µM,58.4,31.4,59.4,77.2,6.81,93.3,14.2,77.3,225
O=c1ccc2nc(-c3ccccn3)nn(-c3ccccc3)c-2c1,20,14.6 µM,32.8,,24.1 µM,3.93,3.01 µM,5.75,4.18,,6.25 µM,4.18,2.29,15.5,1.93,,1.6,11.1,,1.92
O=C(O)C(=O)/C=C(\O)c1ccc(Br)cc1,82.1,> 100 µM,> 100,> 100,> 100 µM,> 100,> 100 µM,> 100,> 100,> 100,,,,,,,,,,
COc1ccc2nc3cc(Cl)ccc3c(NCCNc3c4ccc(Cl)cc4nc4ccc(OC)cc34)c2c1,,3.28 µM,,4.59,3.13 µM,3.69,2.92 µM,3.21,3.45,3.94,,1.79,1.76,,1.83,2.04,1.55,1.73,1.89,2.06
O=c1ccc2ccc(O)cc2o1,> 100,> 100 µM,,> 100,> 100 µM,> 100,> 100 µM,> 100,> 100,> 100,,,,,,,,,,
NCCCNCCCCN1CC1,16.7,> 36.2 µM,> 100,> 21.3,,4.71,7.83 µM,> 100,> 34.9,1.02,,,,,,,,,,
C=C1C(=O)OC2CC3(C)OC3CC/C(C)=C/C(OC(C)=O)C12 (stereo not drawn),32.7,31.6 µM,31.6,14.3,37 µM,22.6,16.4 µM,25.2,26,15.9,,,,,,,,,,
COc1ccc(Sc2ccccc2N)cc1,> 100,> 100 µM,> 100,> 100,> 100 µM,> 100,75.6 µM,,,,,,,,,,,,,
Cc1ccc(CCC(=O)C(=O)O)s1,> 100,> 100 µM,> 100,> 100,> 100 µM,> 100,,,,,,,,,,,,,,
Cc1nc2ccccc2c(/C=C/c2ccc(Cl)cc2)c1C(=O)/C=C/c1ccccc1,,3.3 µM,3.14,6.5,,,2.98 µM,,,,,1.66,,1.39,,1.26,1.6,,,
COC(=O)C(NC(=O)c1ccccc1)C(c1ccc(Cl)cc1)P(=O)(OC)OC (stereo not drawn),> 100,> 100 µM,> 100,> 100,> 100 µM,> 100,> 100 µM,,,,,,,,,,,,,
CCOc1ccc2c(c1)c(=O)c1c(NCCN(CC)CC)ccc3nnn2c31,> 100,> 50.4 µM,> 57.8,> 65.1,> 100 µM,> 59.6,25.5 µM,32.5,49.7,> 100,,,,,,,,,,
CCCCNC(=O)/N=C/c1c(O)c2ccccc2oc1=O,> 100,> 100 µM,> 100,> 100,,> 100,79.5 µM,,,,,,,,,,,,,
COc1ccc(N2NC(c3ccccc3)(c3ccccc3)C(C)C2=O)cc1 (stereo not drawn),> 100,> 100 µM,> 100,> 100,,> 100,> 100 µM,> 100,> 100,> 100,,,,,,,,,,
CC(C)(C)CC(C)(C)c1ccc(O)c(C[N+](C)(C)[O-])c1,> 100,> 100 µM,> 100,> 100,> 100 µM,> 100,> 100 µM,> 100,> 100,> 100,,,,,,,,,,
Cc1ccc(NC(=O)CSC(N)=O)cc1C,> 100,> 100 µM,> 100,> 100,,> 100,> 100 µM,> 100,> 100,> 100,,,,,,,,,,
COc1ccc(C[C@H](N)C(=O)N2C[C@@H](CO)C[C@@H](n3ccc(=O)[nH]c3=O)C2)cc1,> 100,> 100 µM,> 100,> 100,> 100 µM,,> 100 µM,,,,,,,,,,,,,
COc1ccc(-c2nn(-c3ccc(NC(=O)Nc4ccc(Cl)c(C(F)(F)F)c4)cc3)cc2-c2ccncc2)cc1Cl,14.4,7.97 µM,3.36,1.92,,4.91,2.19 µM,4.8,5.49,7.73,1.83 µM,2.19,1.79,1.4,0.793,0.388,0.74,,2.72,1.94
